Tests used:
HSaVEC = assay: In vitro ATP release assay (luciferin:luciferase), HSaVEC; type: cell-based, human; conditions: HSaVEC monolayers
Method: In vitro Human arterial and venous ECs were seeded in 24-well plates pre-coated with 0.2% gelatin and grown to confluency. On the day of experiment, the media was removed from each well and cells were carefully washed twice with warm serum free basal EC medium supplemented with 1% BSA. Cells were then incubated in 300 μL of fresh basal EC medium supplemented with 1% BSA for 30 minutes at 37° C. to allow degradation of extracellular ATP released due to mechanical stimulation during washes. Endogenous ecto-nucleotidases were inhibited by incubating EC monolayers with 300 μM ARL 67156 (Tocris) for 30 minutes at 37° C. Cells were then stimulated with recombinant human TNFα (R&D Systems). For dose response experiments, ECs were incubated with 0.1, 1, 5, 10, 50, or 100 ng/mL recombinant TNFα for 30 minutes at 37° C. For time-course experiments, ECs were stimulated with 10 ng/mL recombinant TNFα for different time points up to 1 hour. In experiments where pharmacological inhibitors were employed, ECs were incubated with antagonists in parallel with ARL 67156 for 30 minutes. To inhibit TNFR1, ECs were incubated with the peptide antagonist of the receptor WP9QY (10 μM; Anaspec). […] Cx hemichannels were inhibited with lanthanum (La^3+; 100 μM; Sigma) and Panx1 channels were blocked with carbenoxolone (CBX; 50 μM; Sigma) and the inhibitory peptide ^10panx1 (200 μM; Genscript). […] The role of caspase activation was assessed by inhibition with the pan-caspase blocker Q-VD-OPh (100 μM; Sigma). Following stimulation with TNFα or vehicle, 150 μL of the cell supernatant was collected and immediately placed into pre-chilled 1.5 mL Eppendorf tubes on ice. All samples were centrifuged at 10,000×g for 5 minutes and 50 μL of each sample was transferred to a white, opaque 96-well plate. Using a FluoStar Omega luminometer, 50 μL of luciferin:luciferase reagent (ATP bioluminescence assay kit HSII; Roche) was injected into each well and luminescence was recorded following a 5s orbital mix. ATP concentration in each sample was calculated from a standard curve for all experiments. Data are presented as a % change in ATP release from baseline (i.e. unstimulated cells) and expressed as mean±SEM (n=5 independent experiments with triplicate measurements).

Src Family Kinases (SFK) = assay: Western blot of SFK activation (pY416SFK) in venous ECs; type: cell-based, human; conditions: HUVEC and HSaVEC; acute (5 minute) TNFα
Method: (§1) Following stimulation with TNFα (in vitro: 10 ng/mL; ex vivo: 50 ng/mL), confluent endothelial cell monolayers or isolated mesenteric venules were homogenized in ice cold Triton extraction buffer (50 mM Tris-HCL, 150 mM NaCl , 5 mM EDTA, 1% deoxycholate, 1% NP-40 and 1% Triton-X100 in phosphate buffered saline and pH adjusted to 7.4) containing protease and phosphatase inhibitors. Cell/Tissue lysates were incubated with rotation at 4° C. for 20 minutes to solubilize proteins, followed by centrifugation for 5 minutes at 13,000× g to pellet cell debris. Protein concentration was quantified using the BCA method. 15-20 μg of total protein was subjected to SDS gel electrophoresis using 4-12% Bis-Tris gels (Invitrogen) and transferred to nitrocellulose membranes for immunoblotting. Membranes were blocked for 1 hr at room temperature with LiCOR blocking solution, then incubated overnight at 4° C. with primary antibodies against pY416SFKs, (BD Biosciences; 1:1000) pY198Panx1 (Alpha Diagnostic Intl (ADI); 1:1000) and GAPDH (Sigma; 1:10,000) or an antibody against the intracellular loop of Panx1 (Panx1-IL) (ADI; 1:1000) (normalization controls). Membranes were then washed and incubated with LiCOR secondary antibodies (1:10,000) and visualized and quantitated using LiCOR Odyssey. To inhibit SFK activity, EC monolayers were incubated with the SFK inhibitor PP2 (Tocris; 10 μM). […] To show specificity for the phosphorylated form of SFKs and Panx1, cell lysates were incubated with alkaline phosphatase for 1 hour at 37° C. Western blot images have been cropped for presentation. Uncropped Western blots can be found in FIGS. 12-13. Data are expressed as mean±SEM (n=3 independent experiments).

[1] = system: isolated murine mesenteric venules; assay: Ex vivo vascular perfusion ATP release assay, mesenteric venules; type: cell-based, mouse; conditions: lumenal perfusion
Method: For isolated blood vessel experiments, 2nd order venules or arterioles were dissected from the mouse mesentery circulation and cannulated on glass micropipettes to access the vessel lumen. […] Vessels were then perfused with MOPS PSS containing 300 μM ARL 67156 +/− pharmacological inhibitors and incubated for an additional 20 minutes prior to perfusion with MOPS PSS containing recombinant murine TNFα (R&D Systems). Aliquots of the lumenal perfusate were collected every 5 minutes for a 25-minute period and the ATP concentration was quantified by bioluminescence as described above. Data are expressed as mean±SEM (n=4 independent experiments).

C57B1/6J mice = assay: Intravital microscopy of cremaster muscle for leukocyte adhesion and emigration; type: in vivo, mouse; conditions: topical TNFα on cremaster, after 120 minutes
Method: Mice were prepared for intravital microscopy of the cremaster muscle as described previously^25. Briefly, mice were anesthetized with ketamine hydrochloride (150 mg/kg, IP) and xylazine (7.5 mg/kg, IP). The cremaster was isolated, laid over a viewing pedestal, superfused with bicarbonate-buffered saline. After 30 min equilibration, a venule with a wall shear rate (WSR) of ≥500/s, diameter between 20 μm and 40 μm, and the least number of adherent and emigrated leukocytes was chosen for further study. A 1 min baseline recording was made, after which superfusion was stopped, and 50 μl TNFα (1.7 ng/ml in 0.1% BSA) or vehicle control was added under a saran wrap cover every 30 min. 1 min recordings were made just prior to each addition, for 3 hrs. The TNFα was initially reconstituted in PBS at 3.4 ng/ml and 150 μl aliquots were frozen. An aliquot was mixed 1:1 with BBS containing 0.2% BSA at the time of the experiment. Leukocyte adhesion and emigration were determined by off-line analysis. Leukocytes were considered adherent if they stopped for at least 30 s (expressed as #/mm^2 vessel wall), and emigrated leukocytes were leukocytes identified in the interstitium (expressed as #cells/mm^2 tissue). Data are expressed as mean±SEM (n=6-7 independent animals/group).

Panx1 [2] = assay: Western blot of Panx1 phosphorylation at Y198 in venous ECs; type: cell-based, human; conditions: HUVEC and HSaVECs; TNFα 10 ng/mL
Method: as §1

[3] = system: isolated mesenteric venules; assay: LDH release assay in perfused venules; type: cell-based, mouse; conditions: perfusion of TNFα
Method: Isolated mesenteric venules were cannulated and perfused with recombinant mouse TNFα for 20 minutes followed by lysis buffer. Perfusate samples were collected as described above and LDH activity was assayed with the Cytotoxicity Detection Kit Plus (Roche) according to the manufacturer's protocol as an output for cell death. Data are expressed as mean±SEM (n=3 independent experiments).

Panx1 [4] = assay: Western blot of pY198Panx1 in isolated mesenteric venules; type: cell-based, mouse; conditions: mesenteric venules perfused with TNFα 50 ng/mL 30 minutes
Method: Following stimulation with TNFα (in vitro: 10 ng/mL; ex vivo: 50 ng/mL), confluent endothelial cell monolayers or isolated mesenteric venules were homogenized in ice cold Triton extraction buffer (50 mM Tris-HCL, 150 mM NaCl , 5 mM EDTA, 1% deoxycholate, 1% NP-40 and 1% Triton-X100 in phosphate buffered saline and pH adjusted to 7.4) containing protease and phosphatase inhibitors. Cell/Tissue lysates were incubated with rotation at 4° C. for 20 minutes to solubilize proteins, followed by centrifugation for 5 minutes at 13,000× g to pellet cell debris. Protein concentration was quantified using the BCA method. 15-20 μg of total protein was subjected to SDS gel electrophoresis using 4-12% Bis-Tris gels (Invitrogen) and transferred to nitrocellulose membranes for immunoblotting. Membranes were blocked for 1 hr at room temperature with LiCOR blocking solution, then incubated overnight at 4° C. with primary antibodies against pY416SFKs, (BD Biosciences; 1:1000) pY198Panx1 (Alpha Diagnostic Intl (ADI); 1:1000) and GAPDH (Sigma; 1:10,000) or an antibody against the intracellular loop of Panx1 (Panx1-IL) (ADI; 1:1000) (normalization controls). Membranes were then washed and incubated with LiCOR secondary antibodies (1:10,000) and visualized and quantitated using LiCOR Odyssey. […] Data are expressed as mean±SEM (n=3 independent experiments).

HAoEC = assay: In vitro ATP release assay, HAoEC; type: cell-based, human
Method: In vitro Human arterial and venous ECs were seeded in 24-well plates pre-coated with 0.2% gelatin and grown to confluency. On the day of experiment, the media was removed from each well and cells were carefully washed twice with warm serum free basal EC medium supplemented with 1% BSA. Cells were then incubated in 300 μL of fresh basal EC medium supplemented with 1% BSA for 30 minutes at 37° C. to allow degradation of extracellular ATP released due to mechanical stimulation during washes. Endogenous ecto-nucleotidases were inhibited by incubating EC monolayers with 300 μM ARL 67156 (Tocris) for 30 minutes at 37° C. Cells were then stimulated with recombinant human TNFα (R&D Systems). For dose response experiments, ECs were incubated with 0.1, 1, 5, 10, 50, or 100 ng/mL recombinant TNFα for 30 minutes at 37° C. […] The role of caspase activation was assessed by inhibition with the pan-caspase blocker Q-VD-OPh (100 μM; Sigma). […] Using a FluoStar Omega luminometer, 50 μL of luciferin:luciferase reagent (ATP bioluminescence assay kit HSII; Roche) was injected into each well and luminescence was recorded following a 5s orbital mix. ATP concentration in each sample was calculated from a standard curve for all experiments. Data are presented as a % change in ATP release from baseline (i.e. unstimulated cells) and expressed as mean±SEM (n=5 independent experiments with triplicate measurements).

## TNFα
HSaVEC
  ATP release on cytokine stimulation: significant increase
Src Family Kinases (SFK)
  Y416 phosphorylation of SFK: significant increase
[1]
  ATP accumulation in the perfusate on cytokine perfusion: time- and dose-dependent increase
C57B1/6J mice
  increase of leukocyte adhesion: ~2.5 fold
  increase of leukocyte emigration: ~3.5 fold
Panx1 [2]
  Panx1 phosphorylation at Y198: increased phosphorylation at Y198
[3]
  cell death (LDH accumulation in perfusates): did not induce cell death
Panx1 [4]
  phosphorylation of Panx1: promoted phosphorylation of Panx1
HAoEC
  ATP release on cytokine stimulation: failed to release ATP

— patent publication US11331375B2, “Compositions and methods for regulating leukocyte adhesion” (University of Virginia Patent Foundation, priority 2015, dated 2022)
